Data taken from patent US8772489B2, “Optically active 2-hydroxy tetrahydrothienopyridine derivatives, preparation method and use in manufacture of medicament thereof” (Jiangsu Vcare PharmaTech Co. Ltd., priority 2010, dated 2014).
Read-outs that look alike come from different tables or passages of the source.

Experiments:
platelet aggregation = assay: animal or person; type: in vivo; settings: Rattus norvegicus, read-out: Aggregation inhibition (%)
From the text: The positive control and the test compounds (prepared in the above examples) were formulated in 0.5% CMC-Na (carboxymethylcellulose sodium) into suspensions for administration to animals.
Animals: male SD rats, weighed about 250 g, and supplied by Shanghai Super-B&K Laboratory Animal Corp. Ltd. Animal certificate No.: 2008001605451, and license No.: SCXK (Hu); SCXK (Hu) 2008-0016.
Instruments: a centrifuge (80-2 bench top low-speed centrifuge), an automatic platelet aggregation tester (STELLEXLG-PAPER-I platelet coagulation/aggregation analyzer), and others.
Methods: the pharmacological activity test of the compounds of the present invention for platelet aggregation was performed following Born's turbidimetric method (Nature, 1962, 194(4832): 927). An agglomeration-promoting substance, adenosine diphosphate (ADP), was added to a platelet rich plasma (PRP), and stirred to allow platelets to aggregate. […] This experiment can be used to evaluate the platelet aggregation effect induced by the test compounds administrated in-vivo or in-vitro.
The PRP was adjusted with a platelet poor plasma (PPP) to maintain the platelet counts at […]. The PRP was taken into a test cup, and incubated at 37° C. for 10 min. Light transmission was adjusted to 0% with PRP and to 100% with PPP for each measurement. By using ADP (with a final concentration of 5 μM) as an inducer, the platelet aggregation percentages were measured through the turbidimetric method using a platelet aggregation tester, and statistically compared by t-test. The platelet aggregation inhibition was calculated by the equation: platelet aggregation inhibition (%)=[1−(aggregation percent in dosed tube/aggregation percent in control tube)]×100%.

[1] = molecular target: human carboxylesterase 1 (hCE1) (Homo sapiens, UniProt P23141); settings: in vivo, J Pharmacol Exp Ther, 2006, 319: 1467; cited from earlier work
Chain of human carboxylesterase 1 (hCE1) (P23141 18-567): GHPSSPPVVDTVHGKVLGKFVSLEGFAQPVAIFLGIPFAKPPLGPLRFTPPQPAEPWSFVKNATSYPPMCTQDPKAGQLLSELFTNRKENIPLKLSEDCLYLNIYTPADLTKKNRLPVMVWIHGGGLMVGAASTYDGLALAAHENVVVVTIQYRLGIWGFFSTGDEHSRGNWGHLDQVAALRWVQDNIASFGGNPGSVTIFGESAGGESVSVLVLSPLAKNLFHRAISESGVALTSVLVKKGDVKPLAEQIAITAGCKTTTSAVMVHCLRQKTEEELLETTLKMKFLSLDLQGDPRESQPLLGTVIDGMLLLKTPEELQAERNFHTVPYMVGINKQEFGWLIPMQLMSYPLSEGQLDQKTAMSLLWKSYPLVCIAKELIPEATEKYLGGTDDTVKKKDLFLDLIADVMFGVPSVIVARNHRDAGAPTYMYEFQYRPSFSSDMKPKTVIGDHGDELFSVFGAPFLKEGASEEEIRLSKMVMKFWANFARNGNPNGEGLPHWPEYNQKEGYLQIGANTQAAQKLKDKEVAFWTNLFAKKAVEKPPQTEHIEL

[2] = male SD rats, oral gavage 3 mg/kg, blood after 2 hrs, ADP 5 μM

| Compound | inhibition at 3 mg/kg (platelet aggregation; [2]) | melting point | other results |
| --- | --- | --- | --- |
| COC(=O)[C@H](c1ccccc1Cl)N1CCc2sc(OC(=O)c3ccccc3)cc2C1 [Compound I-1, (S)-Methyl 2-(2-benzoyloxy-6,7-dihydrothieno[3,2-c]pyridin-5(4H)-yl)-2-(2-chlorophenyl)-acetate] | 41.1% | 84 to 86 °C |  |
| COC(=O)[C@H](c1ccccc1Cl)N1CCc2sc(OC(=O)c3cccnc3)cc2C1 [Compound I-6, (S)-methyl 2-(2-nicotinoyloxy-6,7-dihydrothieno[3,2-c]pyridin-5(4H)-yl)-2-(2-chlorophenyl)-acetate] | 31.3% | 92 to 94 °C |  |
| CCC(C)(C)C(=O)Oc1cc2c(s1)CCN([C@H](C(=O)OC)c1ccccc1Cl)C2 [Compound I-8, (S)-Methyl 2-(2-(2,2-dimethylbutanoyloxy)-6,7-dihydrothieno[3,2-c]pyridin-5(4H)-yl)-2-(2-chlorophenyl)-acetate] | 35.7% | 98 to 100 °C |  |
| COC(=O)[C@H](c1ccccc1Cl)N1CCc2sc(OC(=O)/C=C/c3ccccc3)cc2C1 [Compound I-9, (S)-methyl 2-(2-cinnamoyloxy-6,7-dihydrothieno[3,2-c]pyridin-5(4H)-yl)-2-(2-chlorophenyl)-acetate] | 30.3% | 122 to 124 °C |  |
| COC(=O)[C@H](c1ccccc1Cl)N1CCc2sc(OC(=O)c3ccc([N+](=O)[O-])cc3)cc2C1 [Compound I-10, (S)-methyl 2-(2-(4-nitrobenzoyloxy)-6,7-dihydrothieno[3,2-c]pyridin-5(4H)-yl)-2-(2-chlorophenyl)-acetate] | 36.8% | 100 to 102 °C |  |
| COC(=O)[C@H](c1ccccc1Cl)N1CCc2sc(OC(=O)COc3ccccc3)cc2C1 [Compound I-13, (S)-Methyl 2-(2-(phenoxyacetoxy)-6,7-dihydrothieno[3,2-c]pyridin-5(4H)-yl)-2-(2-chlorophenyl)-acetate] | 10.1% | 104 to 106 °C |  |
| CCOC(=O)Oc1cc2c(s1)CCN([C@H](C(=O)OC)c1ccccc1Cl)C2 [Compound I-14, (S)-Methyl 2-(2-(ethoxycarbonyloxy)-6,7-dihydrothieno[3,2-c]pyridin-5(4H)-yl)-2-(2-chlorophenyl)-acetate] | 62.9% | 42 to 44 °C |  |
| COC(=O)[C@H](c1ccccc1Cl)N1CCc2sc(OC(=O)OC(C)C)cc2C1 [Compound I-16, (S)-Methyl 2-(2-(isopropoxycarbonyloxy)-6,7-dihydrothieno[3,2-c]pyridin-5(4H)-yl)-2-(2-chlorophenyl)-acetate] | 52.7% |  |  |
| COC(=O)[C@H](c1ccccc1Cl)N1CCc2sc(OC(=O)N(C)C)cc2C1 [Compound I-18, (S)-Methyl 2-(2-(N,N-dimethylcarbamoyloxy)-6,7-dihydrothieno[3,2-c]pyridin-5(4H)-yl)-2-(2-chlorophenyl)-acetate] |  | 96 to 98 °C | inhibition at 3 mg/kg (platelet aggregation; po, 2 h): 48.2% |
| COC(=O)[C@H](c1ccccc1F)N1CCc2sc(OC(C)=O)cc2C1 [Compound I-19, (S)-Methyl 2-(2-acetoxy-6,7-dihydrothieno[3,2-c]pyridin-5 (4H)-yl)-2-(2-fluorophenyl)-acetate] | 63.5% |  |  |
| COC(=O)[C@H](c1ccc(Cl)cc1)N1CCc2sc(OC(C)=O)cc2C1 [Compound I-20, (S)-Methyl 2-(2-acetoxy-6,7-dihydrothieno[3,2-c]pyridin-5(4H)-yl)-2-(4-chlorophenyl)-acetate] | 17.6% |  |  |
| COC(=O)[C@H](c1ccccc1)N1CCc2sc(OC(C)=O)cc2C1 [Compound I-21, (S)-Methyl 2-(2-acetoxy-6,7-dihydrothieno[3,2-c]pyridin-5 (4H)-yl)-2-phenyl-acetate] | 9.1% |  |  |
| COC(=O)[C@H](c1ccccc1Cl)N1CCc2sc(OC(=O)N3CCCC3)cc2C1 [Compound I-22, (S)-Methyl 2-(2-(pyrrolidine-1-carbonyloxy)-6,7-dihydrothieno[3,2-c]pyridin-5(4H)-yl)-2-(2-chlorophenyl)-acetate] |  |  | inhibition at 3 mg/kg (platelet aggregation; po, 2 h): 20.3% |
| COC(=O)[C@@H](c1ccccc1Cl)N1CCc2sc(OC(C)=O)cc2C1 [I-2′] | 27.1% |  | inhibition at 10 mg/kg (platelet aggregation; male SD rats, oral gavage 10 mg/kg, blood after 2 hrs, ADP 5 μM): 55.3% |
| COC(=O)[C@H](c1ccccc1Cl)N1CCc2sccc2C1 [clopidogrel] |  |  | share of the prototype drug hydrolyzed by hCE1 in the liver into an inactive carboxylic derivative [1]: 85% |
